Assay results published in patent US9873709B2 (priority 2013, dated 2018).

Legend:
[1] = system: JAK1-dependent STAT6 phosphorylation downstream of IL-13 stimulation in BEAS-2B human bronchial epithelial cells; assay: cells; conditions: read-out: IL13-pSTAT6 BEASB2B IC50
[2] = system: JAK1-dependent STAT6 phosphorylation downstream of IL-13 stimulation in TF-1 human erythroleukemia cells; assay: cells; conditions: TF-1, read-out: IL-13-pSTAT6 IC50

| IC50 [2] [nM] | Structure (SMILES) | IC50 [1] [nM] |
| --- | --- | --- |
| 4.6 | O=C(NCCc1ccncc1)c1ccc(Nc2nc3c(C4=CCN(C(=O)CCC(F)(F)F)CC4)cccn3n2)cc1 [Example 2-343, N-[2-(4-pyridyl)ethyl]-4-[[8-[1-(4,4,4-trifluorobutanoyl)-3,6-dihydro-2H-pyridin-4-yl]-[1,2,4]triazolo[1,5-a]pyridin-2-yl]amino]benzamide] | 38.3 |
| 3.3 | O=C(CCC(F)(F)F)N1CC=C(c2cccn3nc(Nc4ccc(C(=O)N5CCC(c6ccncc6)C5)cc4)nc23)CC1 (centres unmarked) [Example 2-338, 4,4,4-trifluoro-1-[4-[2-[4-[3-(4-pyridyl)pyrrolidine-1-carbonyl]anilino]-[1,2,4]triazolo[1,5-a]pyridin-8-yl]-3,6-dihydro-2H-pyridin-1-yl]butan-1-one] | 23.4 |
| 3.8 | O=C(NC1CCN(C2CCCC2)CC1)c1ccc(Nc2nc3c(C4=CCN(C(=O)CCC(F)(F)F)CC4)cccn3n2)cc1 [Example 2-49, N-(1-cyclopentyl-4-piperidyl)-4-[[8-[1-(4,4,4-trifluorobutanoyl)-3,6-dihydro-2H-pyridin-4-yl]-[1,2,4]triazolo[1,5-a]pyridin-2-yl]amino]benzamide] | 10.2 |
| 3 | CC1CN(CCNC(=O)c2ccc(Nc3nc4c(C5=CCN(C(=O)CCC(F)(F)F)CC5)cccn4n3)cc2)CC(C)O1 (centres unmarked) [Example 2-268, N-[2-(2,6-dimethylmorpholin-4-yl)ethyl]-4-[[8-[1-(4,4,4-trifluorobutanoyl)-3,6-dihydro-2H-pyridin-4-yl]-[1,2,4]triazolo[1,5-a]pyridin-2-yl]amino]benzamide] | 26.6 |
| 6.7 | CCOC(=O)N1CC=C(c2cccn3nc(Nc4ccc(C(=O)NCCCN5CCOCC5)cc4)nc23)CC1 [Example 2-56, ethyl 4-[2-[4-(3-morpholinopropylcarbamoyl)anilino]-[1,2,4]triazolo[1,5-a]pyridin-8-yl]-3,6-dihydro-2H-pyridine-1-carboxylate] | 59.4 |

Further lines, the compound ahead of its results:

| Structure (SMILES) | IC50 [2] [nM] | IC50 [1] [nM] |
| --- | --- | --- |
| COCC1(c2ccc(Cl)cc2)CCN(c2cccn3nc(Nc4ccc(C(=O)N(C)C5CCN(C)CC5)cc4)nc23)CC1 [Example 1-258, 4-[[8-[4-(4-chlorophenyl)-4-(methoxymethyl)-1-piperidyl]-[1,2,4]triazolo[1,5-a]pyridin-2-yl]amino]-N-methyl-N-(1-methyl-4-piperidyl)benzamide; formic acid] | 93.4 | 1440 |
| O=C(c1ccc(Nc2nc3c(N4CCC(CO)(c5ccc(Cl)cc5)CC4)cccn3n2)cc1)N1CCCC1c1ccncc1 (centres unmarked) [Example 1-288, [4-[[8-[4-(4-chlorophenyl)-4-(hydroxymethyl)-1-piperidyl]-[1,2,4]triazolo[1,5-a]pyridin-2-yl]amino]phenyl]-[2-(4-pyridyl)pyrrolidin-1-yl]methanone] | 28 | 67.7 |
| O=C(c1ccc(Nc2nc3c(N4CCC(CO)(c5ccc(Cl)cc5)CC4)cccn3n2)cc1)N1CCC(c2ccncc2)C1 (centres unmarked) [Example 1-279, [4-[[8-[4-(4-chlorophenyl)-4-(hydroxymethyl)-1-piperidyl]-[1,2,4]triazolo[1,5-a]pyridin-2-yl]amino]phenyl]-[3-(4-pyridyl)pyrrolidin-1-yl]methanone] | 28.1 | 34.6 |
| CCN(Cc1ccncc1)C(=O)c1ccc(Nc2nc3c(N4CCC(CO)(c5ccc(Cl)cc5)CC4)cccn3n2)cc1 [Example 1-287, 4-[[8-[4-(4-chlorophenyl)-4-(hydroxymethyl)-1-piperidyl]-[1,2,4]triazolo[1,5-a]pyridin-2-yl]amino]-N-ethyl-N-(4-pyridylmethyl)benzamide] | 22.5 | 36.4 |
| CN1CCC2CN(C(=O)c3ccc(Nc4nc5c(N6CCC(CO)(c7ccc(Cl)cc7)CC6)cccn5n4)cc3)CC21 (centres unmarked) [Example 1-275, [4-[[8-[4-(4-chlorophenyl)-4-(hydroxymethyl)-1-piperidyl]-[1,2,4]triazolo[1,5-a]pyridin-2-yl]amino]phenyl]-(1-methyl-2,3,3a,4,6,6a-hexahydropyrrolo[2,3-c]pyrrol-5-yl)methanone] | 3 | 55.5 |
